Paper PMC6920794, “Evaluation of Novel Chalcone-Thiosemicarbazones Derivatives as Potential Anti-Leishmania amazonensis Agents and Its HSA Binding Studies” (Biomolecules, 2019)

How the values were obtained:
[1] = test system: L. amazonensis promastigotes; assay: Promastigote assay (MTT); format: cell-based, Leishmania amazonensis; conditions: after 48 h of culture (table title); for IC50: Leishmania amazonensis
Description: Leishmania amazonensis (MHOM/BR/77/LTB0016) were regularly isolated from infected mice and maintained in culture as promastigotes through weekly passages in Schneider’s medium (Sigma Aldrich, St. Louis, MO, USA) supplemented with 10% (v/v) heat-inactivated fetal calf serum, penicillin (100 UI/mL), and streptomycin (100 µg/mL) at 299K. Parasites were maintained until the 10th passage. The Animal Ethics Committee of the Oswaldo Cruz Foundation (license number L026/2015) approved this study.
Promastigotes of L. amazonensis (1 × 10^6 promastigotes/mL) in the 4th day on culture in the conditions described above were incubated with the chalcones serially diluted in culture medium (0.032% v/v DMSO at the highest concentration tested) on a 96-well cell culture plate (TPP™ test plate, Switzerland). The assayed concentrations ranged from 50 to 1.56 µM for all chalcone-thiosemicarbazones (5a–g) and for pentamidine (Sigma Aldrich, St. Louis, MO, USA). […] All compounds were analyzed in at least three experiments performed in triplicate. Pentamidine was used as the reference drug and diluted in the same concentrations used for 5a–g. The vehicle (DMSO) had no effect on the parasites.
The antileishmanial activity was evaluated by adding 22 µL of 3-(4,5-dimethylthiazol-2-yl)-2-5diphenyltetrazolium bromide (MTT) at 5 mg/mL (Sigma Aldrich, St. Louis, MO, USA) to each well. After 2 h, 80 µL of DMSO was added and the optical density was determined at a wavelength of 570 nm in a microplate reader (µQuant Bio-Tek Instruments®, Winooski). The assays were carried out in triplicate in 96-well plates (Costar, New York, USA). The inhibition percentage was estimated by the comparison with the non-treated control. The values for the inhibitory concentration for 50% of the promastigotes (IC50) were calculated by a sigmoidal model.

[2] = test system: L. amazonensis axenic amastigotes; assay: Axenic amastigotes assay (resazurin); format: cell-based; conditions: Leishmania amazonensis, 72 h of culture, table title says 48 h
Description: Promastigote forms of L. amazonensis (MHOM/BR/77/LTB0016) were grown to a stationary phase, washed once in phosphate buffer solution (PBS) (pH = 7.4) and adjusted to 5 × 10^6 parasites/mL in Schneider’s medium, supplemented with 20% fetal bovine solution (FBS) pH = 5.5 and maintained at 305K. After 5 days of cultivation, the rounded forms without free flagella were obtained and, after heat shock, were used in the appropriate assays. To evaluate the activity against axenic amastigotes, the parasites were incubated with increasing concentrations of the prototypes (diluted in DMSO) for 72 h at 305K. These assays were performed in triplicate in 96-well flat bottom plates (Falcon Co, Franklin Lakes, USA). The leishmanicidal activity was evaluated by adding 22 μl of resazurin to each well. After 4 h, the cell viability was measured as described above. Calculation of the IC50 values was determined in relation to the control by a sigmoidal model using GraphPad Prism 6.0 software.

[3] = test system: murine peritoneal macrophages; assay: Macrophage cytotoxicity (resazurin); format: cell-based
Description: Peritoneal macrophages from albino laboratory-bred strain (BALB/c) mice were obtained in RPMI 1640 medium at pH 7.2 (Gibco, New York, NY, USA) supplemented with 10% (v/v) heat-inactivated fetal bovine serum, 100 U/mL penicillin and 0.1 mg/mL of streptomycin and distributed (1 × 10^6 macrophages/well) in triplicate in 96-well plates (Falcon Co., Franklin Lakes, USA) and incubated for 1 h in a 5% CO2 atmosphere incubator at 310K. The supernatant was removed, and the compounds were added to the plate at concentrations from 10 µM to 50 µM. Next, the cultures were incubated for 48 h in a CO2 incubator at 310K. After incubation, the supernatant was removed and a resazurin solution (50 µM) was added to each well and incubated at 310K for 4 h. Furthermore, the fluorescence was measured using a wavelength of 560 nm for excitation and 590 nm for detection (Molecular Devices, Silicon Valley, USA). Results were expressed as the percentage of viable cells compared to the control cells treated with the highest DMSO dose used to dissolve the drugs. The 50% cytotoxic concentration (CC50) was calculated using GraphPad Prism 6.0 software (GraphPad Company, San Diego, CA, USA).

[4] = constant of substituent 4-X; cited from earlier work
[5] = test system: L. amazonensis intracellular amastigotes; assay: Intracellular amastigotes assay in infected macrophages; format: cell-based, Leishmania amazonensis; conditions: for IC50: L. amazonensis-infected murine peritoneal macrophages, 48 h of culture; for Selectivity Index (SI): SI = LD50/IC50 intracellular amastigotes
Description: Peritoneal macrophages were obtained BALB/c mice with cold Roswell Park Memorial Institute (RPMI) 1640 medium (Sigma Aldrich, St. Louis, MO, USA) supplemented as above. The cell suspension was adjusted to 1 × 10^6 macrophage/mL and incubated in a LAB-TEK 8-chamber slide (Nunc, Roskilde, Denmark) at 310K and 5% CO2 for 1 h. Non-adherent cells were removed and stationary-phase L. amazonensis promastigotes were added at a 3:1 parasite/macrophage ratio. The cultures were incubated for a further 4 h, and free parasites were removed. The chambers were washed, and the monolayers were incubated with the compounds for 48 h. Infected macrophages incubated only in the culture medium were used as controls to compare with the infected treated macrophages. […] The cultures were fixed in methanol and stained with the hematological system Instant Prov (Newprov®, Curitiba, Brazil). The slides were examined by light microscopy, and the number of infected macrophages and the mean number of parasites per macrophage were determined in 100 cells counted. The experiments were performed twice in triplicate. The percentage of infected macrophages was calculated by dividing the number of infected macrophages by the total number of macrophages (infected and uninfected) counted on the slides, multiplied by 100. To determine the infection index, the percentage of infected macrophages was multiplied by the mean number of parasites per macrophage. The percentage inhibition of infection was calculated by multiplying the difference between the infection index of the control and the compound by 100 and dividing by the infection index (IF) of the control using the Equation (1):IF = % infected cells × amastigotes number/total number of macrophages(1) The IC50 ± SD (SD: standard deviation) values were obtained by a sigmoidal model using Origin 6.0 with statistical error limits up to 10%. All tests were conducted in duplicate for each concentration, and two independent assays were performed.

[6] = Leishmania amazonensis, Peritoneal macrophage, in Mus musculus, 48 h

IC50 [1] [µM] | IC50 [2] [µM] | IC50 [5] [µM] | IC50 [5, 6] [µM] | Promastigotes IC50 [1] | melting point [°C] | SMILES | Macrophages LD50 ([3]; BALB/c, mouse, 48 h, pH 7.2) [µM] | Hammett constant σp [4] | Hansh constant π (lipophilicity) [4] | Taft constant Es [4] | molecular refractivity MR [4] | IC50 ([5]; Leishmania amazonensis, Peritoneal macrophage) [µM] | Selectivity Index (SI) [5] | Macrophages LD50 ([3]; murine peritoneal macrophages, 48 h of culture) [µM]
14.7 ± 0.31 | 6.88 ± 1.09 |  |  |  |  | NC(=S)N/N=C(\C=C\c1ccccc1)c1ccccc1 [Compound 5a, (1E,2E)-3-(phenyl)-1-phenylprop-2-en-1-one thiosemicarbazone] | 40.98 ± 1.12 | 0.00 | 0.00 | 0.00 | 0.00 |  |  | 
13.1 ± 1.85 | 5.57 ± 1.15 | > 3.13 | 3.4 to 5.95 |  |  | NC(=S)NN=C(C=Cc1ccc(F)cc1)c1ccccc1 [Compound 5d, (1E,2E)-3-(4′-fluorphenyl)-1-phenylprop-2-en-1-one thiosemicarbazone] | 35.47 ± 1.38 | 0.15 | 0.14 | −0.46 | 0.10 |  |  | 
 |  |  |  | no significant activity | 195 to 196 | N#Cc1ccc(/C=C/C(=N\NC(N)=S)c2ccccc2)cc1 [Compound 5c, (1E,2E)-3-(4′-cyanophenyl)-1-phenylprop-2-en-1-one thiosemicarbazone] |  | 0.71 | −0.57 | −0.51 | 0.63 |  |  | 
12.5 ± 0.99 | 4.24 ± 1.07 |  |  |  |  | NC(=S)N/N=C(\C=C\c1ccc(Br)cc1)c1ccccc1 [Compound 5f, (1E,2E)-3-(4′-bromophenyl)-1-phenylprop-2-en-1-one thiosemicarbazone] | 44.24 ± 4.21 | 0.26 | 0.86 | −1.16 | 0.89 |  |  | 
 |  |  |  | no significant activity | 188 to 190 | NC(=S)N/N=C(\C=C\c1ccc([N+](=O)[O-])cc1)c1ccccc1 [Compound 5g, (1E,2E)-3-(4′-nitrophenyl)-1-phenylprop-2-en-1-one thiosemicarbazone] |  | 0.81 | −0.28 | −1.01 | 0.74 |  |  | 
14.8 ± 1.92 | 7.08 ± 1.03 |  | 5.95 ± 0.61 |  |  | Cc1ccc(/C=C/C(=N\NC(N)=S)c2ccccc2)cc1 [Compound 5b, (1E,2E)-3-(4′-methylphenyl)-1-phenylprop-2-en-1-one thiosemicarbazone] | 56.35 ± 0.78 | −0.14 | 0.56 | −0.25 | 0.57 |  | 9.47 | 

SMILES | IC50 [1] [µM] | IC50 [2] [µM] | IC50 [5] [µM] | IC50 [5, 6] [µM] | Promastigotes IC50 [1] | melting point [°C] | Macrophages LD50 ([3]; BALB/c, mouse, 48 h, pH 7.2) [µM] | Hammett constant σp [4] | Hansh constant π (lipophilicity) [4] | Taft constant Es [4] | molecular refractivity MR [4] | IC50 ([5]; Leishmania amazonensis, Peritoneal macrophage) [µM] | Selectivity Index (SI) [5] | Macrophages LD50 ([3]; murine peritoneal macrophages, 48 h of culture) [µM]
N=C(N)c1ccc(OCCCCCOc2ccc(C(=N)N)cc2)cc1 [Pentamidine, pentamidine, reference compound] | 4.9 ± 0.6 | 12.3 ± 1.17 |  |  |  |  |  |  |  |  |  | 11.1 ± 1.98 | 2.32 | 25.85 ± 4.06
